Results as given in patent US20230265151A1, “GIP/GLP1 CO-AGONIST COMPOUNDS” (priority 2020, published 2023).
Read-outs that look alike come from different tables or passages of the source. *1 amine or outer side, *2 acyl side, *3 side chain or, on linkers, in order; H or OH if unused. Where a SMILES comes first, the peptide text is derived from it. Side-chain parts run from the residue outwards. [ ]: non-standard residue; d: D form. The star is where a group is joined. Decanoyl(10-(4-HOOC-PhO)) = O=C(O)c1ccc(OCCCCCCCCCC(=O)*)cc1; αMePhe(2-F) = C[C@](N)(Cc1ccccc1F)C(=O)O; γGlu = O=C(O)[C@H](CCC(=O)[*:2])N[*:1]; αMeY = C[C@](N)(Cc1ccc(O)cc1)C(=O)O; αMeL = CC(C)C[C@](C)(N)C(=O)O; Orn = NCCC[C@H](N)C(=O)O; AEEA = NCCOCCOCC(=O)O; Aib = CC(C)(N)C(=O)O

Assays:
[1] = target: T1, human GLP-1 receptor (hGLP-1R) (Homo sapiens, UniProt P43220); assay: [125I]-GLP-1 binding, SPA with membranes of HEK293 cells expressing hGLP-1R
T1 construct: expressed in transfected cells; crude membranes
T1 sequence (P43220 24-463): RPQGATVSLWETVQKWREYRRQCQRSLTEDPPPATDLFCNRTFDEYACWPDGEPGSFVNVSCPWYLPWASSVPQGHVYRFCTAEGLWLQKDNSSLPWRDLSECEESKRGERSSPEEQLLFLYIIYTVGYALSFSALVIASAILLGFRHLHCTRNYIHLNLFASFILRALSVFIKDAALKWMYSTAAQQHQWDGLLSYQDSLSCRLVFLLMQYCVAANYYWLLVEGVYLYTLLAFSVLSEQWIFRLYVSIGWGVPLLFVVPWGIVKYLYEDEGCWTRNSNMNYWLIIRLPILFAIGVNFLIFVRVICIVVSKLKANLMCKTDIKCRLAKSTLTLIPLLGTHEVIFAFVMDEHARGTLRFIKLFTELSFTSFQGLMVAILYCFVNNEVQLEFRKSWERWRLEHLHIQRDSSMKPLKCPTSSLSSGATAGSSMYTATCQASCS

hGCGR = target: T2, hGCGR (Homo sapiens, UniProt P47871); assay: Functional cAMP formation (HTRF) in HEK-293 clonal cells expressing hGCGR, 0.1% bovine casein, without or with 1.0% human serum albumin; assay type: cell-based; conditions: hGCGR EC50, nM (SEM, n), cAMP, 37° C.
T2 construct: expressed in transfected cells
T2 sequence (P47871 26-477): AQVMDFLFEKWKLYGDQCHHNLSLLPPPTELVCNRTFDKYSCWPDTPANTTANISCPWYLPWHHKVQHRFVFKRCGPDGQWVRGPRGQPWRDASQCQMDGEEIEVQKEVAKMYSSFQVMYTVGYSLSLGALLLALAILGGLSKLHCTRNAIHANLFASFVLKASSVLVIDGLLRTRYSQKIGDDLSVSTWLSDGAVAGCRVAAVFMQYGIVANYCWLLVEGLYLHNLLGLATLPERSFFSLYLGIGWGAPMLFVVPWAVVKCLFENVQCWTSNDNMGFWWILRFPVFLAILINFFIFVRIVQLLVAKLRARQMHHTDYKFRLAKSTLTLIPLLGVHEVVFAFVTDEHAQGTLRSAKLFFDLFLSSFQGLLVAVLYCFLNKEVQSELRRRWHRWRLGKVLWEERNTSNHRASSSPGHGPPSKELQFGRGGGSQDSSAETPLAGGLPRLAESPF
Summary of the method: (§1)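 Readings of the HTRF 665/620 nm ratio, which falls as cAMP rises, were converted to nM cAMP using a standard curve after 30 min peptide exposure at 37° C.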

hGLP-1R = hGLP-1R (Homo sapiens, UniProt P43220); assay: Functional cAMP formation (HTRF) in HEK-293 clonal cells expressing hGLP-1R, 0.1% bovine casein, without or with 1.0% human serum albumin; assay type: cell-based; parameters: expressed in transfected cells; conditions: for Emax: percent of maximal response to GLP-1(7-36)NH2; for EC50: hGLP-1R EC50, nM (SEM, n), cAMP, 37° C.
Chain of hGLP-1R (P43220 24-463): as the sequence (P43220 24-463) above
Summary of the method: as §1

[2] = target: T3, human Gcg receptor (hGcgR) (Homo sapiens, UniProt P47871); assay: [125I]-Glucagon binding, SPA with membranes of HEK293 cells expressing hGcgR
T3 construct: expressed in transfected cells; crude membranes
T3 sequence (P47871 26-477): as the sequence (P47871 26-477) above

hGIPR = target: T4, hGIPR (Homo sapiens, UniProt P48546); assay: Functional cAMP formation (HTRF) in HEK-293 clonal cells expressing hGIPR, 0.1% bovine casein, without or with 1.0% human serum albumin; assay type: cell-based; conditions: for Emax: percent of maximal response to GIP(1-42)NH2; for EC50: hGIPR EC50, nM (SEM, n), cAMP, 37° C.
T4 construct: expressed in transfected cells
T4 sequence (P48546 22-466): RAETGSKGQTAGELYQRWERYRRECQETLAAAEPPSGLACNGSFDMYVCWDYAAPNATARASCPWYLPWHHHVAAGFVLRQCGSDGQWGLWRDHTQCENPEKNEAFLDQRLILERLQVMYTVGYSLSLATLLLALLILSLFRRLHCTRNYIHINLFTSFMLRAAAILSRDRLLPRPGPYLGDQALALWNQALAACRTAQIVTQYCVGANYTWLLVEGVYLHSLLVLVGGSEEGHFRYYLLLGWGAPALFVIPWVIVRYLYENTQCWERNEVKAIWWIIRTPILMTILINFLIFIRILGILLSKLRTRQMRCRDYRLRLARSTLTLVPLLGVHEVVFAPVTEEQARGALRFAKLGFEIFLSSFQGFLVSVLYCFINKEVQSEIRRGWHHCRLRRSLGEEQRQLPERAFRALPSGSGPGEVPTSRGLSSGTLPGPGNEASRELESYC
Summary of the method: as §1

[3] = 0.1% bovine casein (no human serum albumin), geometric mean
[4] = 0.1% bovine casein and 1.0% human serum albumin, geometric mean (SEM, n)
[5] = HEK293, read-out: hGIPR Emax, % ± SEM, cAMP, 37° C., 0.1% bovine casein and 1.0% human serum albumin

In the case of `CC[C@H](C)[C@H](NC(=O)[C@H](CC(C)C)NC(=O)[C@](C)(Cc1ccc(O)cc1)NC(=O)[C@H](CCCCNC(=O)COCCOCCNC(=O)COCCOCCNC(=O)CC[C@H](NC(=O)CC[C@H](NC(=O)CCCCCCCCCOc1ccc(C(=O)O)cc1)C(=O)O)C(=O)O)NC(=O)[C@@H](NC(=O)[C@H](Cc1ccccc1)NC(=O)[C@H](CCCN)NC(=O)C(C)(C)NC(=O)[C@H](CCC(N)=O)NC(=O)[C@H](C)NC(=O)[C@H](CCC(N)=O)NC(=O)[C@H](CCCN)NC(=O)[C@H](CC(=O)O)NC(=O)[C@H](CC(C)C)NC(=O)[C@](C)(CC(C)C)NC(=O)[C@@H](NC(=O)C(C)(C)NC(=O)[C@H](Cc1ccncc1)NC(=O)[C@H](CC(=O)O)NC(=O)[C@H](CO)NC(=O)[C@@H](NC(=O)[C@](C)(Cc1ccccc1F)NC(=O)[C@@H](NC(=O)CNC(=O)[C@H](CCC(=O)O)NC(=O)C(C)(C)NC(=O)[C@@H](N)Cc1ccc(O)cc1)[C@@H](C)O)[C@@H](C)O)[C@@H](C)CC)[C@@H](C)CC)C(=O)N[C@@H](CCCCNC(=O)COCCOCCNC(=O)COCCOCCNC(=O)CC[C@H](NC(=O)CC[C@H](NC(=O)CCCCCCCCCOc1ccc(C(=O)O)cc1)C(=O)O)C(=O)O)C(=O)NCC(=O)NCC(=O)N1CCC[C@H]1C(=O)N[C@@H](CO)C(=O)N[C@@H](CO)C(=O)NCC(=O)N[C@@H](C)C(=O)N1CCC[C@H]1C(=O)N1CCC[C@H]1C(=O)N1CCC[C@H]1C(=O)N[C@@H](CO)C(N)=O` [Example 475], the Ki [1] is reported as 0.189 nM, the EC50 (hGCGR; [3]) is reported as > 9950 nM and the EC50 (hGCGR; [4]) is reported as > 9950 nM. It also gave an Emax (hGLP-1R; HEK293, read-out: hGLP-1R Emax, % ± SEM, cAMP, 37° C., 0.1% bovine casein, arithmetic mean) of 116%, an EC50 (hGLP-1R; [3]) of 0.143 nM and a Ki [2] of 139 nM. The Emax (hGIPR; [5]) was 84.6%, the EC50 (hGIPR; [3]) was 0.012 nM and the EC50 (hGIPR; [4]) was 0.211 nM.

For `CC[C@H](C)[C@H](NC(=O)[C@H](CC(C)C)NC(=O)[C@](C)(Cc1ccc(O)cc1)NC(=O)[C@H](CCCCNC(=O)COCCOCCNC(=O)COCCOCCNC(=O)CC[C@H](NC(=O)CCCCCCCCCOc1ccc(C(=O)O)cc1)C(=O)O)NC(=O)[C@@H](NC(=O)[C@H](Cc1ccccc1)NC(=O)[C@H](CCC(=O)O)NC(=O)C(C)(C)NC(=O)[C@H](CCC(N)=O)NC(=O)[C@H](C)NC(=O)[C@H](CCC(N)=O)NC(=O)[C@H](CCCN)NC(=O)[C@H](CC(=O)O)NC(=O)[C@H](CC(C)C)NC(=O)[C@](C)(CC(C)C)NC(=O)[C@@H](NC(=O)C(C)(C)NC(=O)[C@@H](NC(=O)[C@H](CC(=O)O)NC(=O)[C@H](CO)NC(=O)[C@@H](NC(=O)[C@](C)(Cc1ccccc1F)NC(=O)[C@@H](NC(=O)CNC(=O)[C@H](CCC(=O)O)NC(=O)C(C)(C)NC(=O)[C@@H](N)Cc1ccc(O)cc1)[C@@H](C)O)[C@@H](C)O)C(C)C)[C@@H](C)CC)[C@@H](C)CC)C(=O)N[C@@H](CCCCNC(=O)COCCOCCNC(=O)COCCOCCNC(=O)CC[C@H](NC(=O)CCCCCCCCCOc1ccc(C(=O)O)cc1)C(=O)O)C(=O)NCC(=O)NCC(=O)N1CCC[C@H]1C(=O)N[C@@H](CO)C(=O)N[C@@H](CO)C(=O)NCC(=O)N[C@@H](C)C(=O)N1CCC[C@H]1C(=O)N1CCC[C@H]1C(=O)N1CCC[C@H]1C(=O)N[C@@H](CO)C(N)=O` [Example 446] (H-Y[Aib]EGT[αMePhe(2-F)]TSDV[Aib]I[αMeL]LD[Orn]QAQ[Aib]EFIK([AEEA-AEEA-γGlu-Decanoyl(10-(4-HOOC-PhO))])[αMeY]LIK([AEEA-AEEA-γGlu-Decanoyl(10-(4-HOOC-PhO))])GGPSSGAPPPS-NH2), the Ki [1] was 0.382 nM, the EC50 (hGCGR; [3]) was > 9950 nM and the EC50 (hGCGR; [4]) was > 9950 nM. The Emax (hGLP-1R; HEK293, read-out: hGLP-1R Emax, % ± SEM, cAMP, 37° C., 0.1% bovine casein and 1.0% human serum albumin) was 105%, the EC50 (hGLP-1R; [3]) was 0.162 nM and the EC50 (hGLP-1R; [4]) was 33.5 nM. It also gave a Ki [2] of 109 nM, an Emax (hGIPR; [5]) of 97% and an Emax (hGIPR; HEK293, read-out: hGIPR Emax, % ± SEM, cAMP, 37° C., 0.1% bovine casein, arithmetic mean) of 105%. For the same compound, the EC50 (hGIPR; [3]) was 0.0164 nM.
